From patent US20250034173A1, “PYRIDO[4,3-D]PYRIMIDINE COMPOUNDS” (PFIZER INC., priority 2023, published 2025)

How the values were obtained:
KRAS Wild Type = KRAS Wild Type (Homo sapiens (Human), UniProt P01116); assay: SPR binding affinity and kinetics, GTPγS-loaded KRAS Wild Type; conditions: GTPγS loaded protein, geomean
In short: (§1)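 Fits to the SPR data were assessed through c2 and whether residues scattered randomly; dissociation phases ran ≥3600 seconds, regeneration omitted.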

KRAS G12D = KRAS G12D (Homo sapiens (Human), UniProt P01116, G12D); assay: SPR binding affinity and kinetics, GTPγS-loaded KRAS G12D; conditions: GTPγS loaded protein, geomean
Chain of KRAS G12D (P01116 other isoform, or with tags, fused parts or gaps G12D): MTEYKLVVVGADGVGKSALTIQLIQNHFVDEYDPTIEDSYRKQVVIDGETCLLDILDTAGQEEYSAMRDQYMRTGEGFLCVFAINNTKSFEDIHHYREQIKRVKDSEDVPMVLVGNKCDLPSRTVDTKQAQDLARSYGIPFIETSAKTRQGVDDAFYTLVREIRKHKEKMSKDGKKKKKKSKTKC
In short: as §1

KRAS G12C = KRAS G12C (Homo sapiens (Human), UniProt P01116, G12C); assay: SPR binding affinity and kinetics, GTPγS-loaded KRAS G12C; conditions: GTPγS loaded protein, geomean
Chain of KRAS G12C (P01116 other isoform, or with tags, fused parts or gaps G12C): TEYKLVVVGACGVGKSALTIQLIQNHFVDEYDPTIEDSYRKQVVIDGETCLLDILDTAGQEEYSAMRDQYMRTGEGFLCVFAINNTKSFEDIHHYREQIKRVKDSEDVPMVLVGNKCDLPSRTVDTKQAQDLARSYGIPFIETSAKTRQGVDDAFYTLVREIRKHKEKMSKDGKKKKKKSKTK
In short: as §1

KRAS G12V = KRAS G12V (Homo sapiens (Human), UniProt P01116, G12V); assay: SPR binding affinity and kinetics, GTPγS-loaded KRAS G12V; conditions: GTPγS loaded protein, geomean
Chain of KRAS G12V (P01116 other isoform, or with tags, fused parts or gaps G12V): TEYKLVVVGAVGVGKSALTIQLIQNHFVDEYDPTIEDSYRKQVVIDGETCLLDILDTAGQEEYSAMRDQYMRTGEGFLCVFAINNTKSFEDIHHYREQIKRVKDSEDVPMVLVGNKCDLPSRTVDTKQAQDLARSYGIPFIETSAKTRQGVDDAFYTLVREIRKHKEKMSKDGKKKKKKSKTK
In short: as §1

HRAS Wild Type = HRAS Wild Type (Homo sapiens (Human), UniProt P01112); assay: SPR binding affinity and kinetics, GTPγS-loaded HRAS Wild Type; conditions: GTPγS loaded protein, geomean
Chain of HRAS Wild Type (P01112 2-184): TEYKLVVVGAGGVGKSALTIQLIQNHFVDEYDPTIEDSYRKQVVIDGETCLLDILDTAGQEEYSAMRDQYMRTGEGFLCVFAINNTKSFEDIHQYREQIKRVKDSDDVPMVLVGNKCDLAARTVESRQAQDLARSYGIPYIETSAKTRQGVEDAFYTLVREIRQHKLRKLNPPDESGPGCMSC
From the text: (§2) No additional regeneration was used.
(§3) Compound dissociation was monitored for at least 3600 seconds. […] No additional regeneration was used.
(§4) The adequateness of the fit was judged by c2 values and the randomness of residue distribution.

NRAS Wild Type = NRAS Wild Type (Homo sapiens (Human), UniProt P01111); assay: SPR binding affinity and kinetics, GTPγS-loaded NRAS Wild Type; conditions: GTPγS loaded protein, geomean
Chain of NRAS Wild Type (P01111 2-185): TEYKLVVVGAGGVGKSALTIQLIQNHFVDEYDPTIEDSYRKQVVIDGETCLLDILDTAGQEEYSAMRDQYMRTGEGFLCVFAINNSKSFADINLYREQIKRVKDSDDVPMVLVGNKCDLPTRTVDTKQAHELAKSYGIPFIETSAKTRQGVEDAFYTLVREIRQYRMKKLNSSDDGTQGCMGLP
From the text: as §2, §3, §4

[1] = test system: H358 (non-small cell lung cancer cell line); assay: KRAS Cell Titer Glo (CTG) cell proliferation assay, H358; format: cell-based; conditions: Homo sapiens, NCI-H358, 168 h; H358 cells, 7-day CTG, geomean IC50
In short: (§5)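 Compounds pre-dispensed in 0.1% DMSO before seeding H358 (300 cells/well), SW620 (750) or PANC08.13 (600); 7-day exposure at 37 °C, 5% CO2. Viability by CellTiter-Glo luminescence after 15 min at room temperature. Percent effect normalised to DMSO (0%) and 1 uM trametinib (100%); geomean IC50.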

[2] = test system: SW620 (colorectal cancer cell line); assay: KRAS Cell Titer Glo (CTG) cell proliferation assay, SW620; format: cell-based; conditions: Homo sapiens, SW-620, 168 h; SW620 cells, 7-day CTG, geomean IC50
In short: as §5

[3] = test system: PANC08.13 (pancreatic cancer cell line); assay: KRAS Cell Titer Glo (CTG) cell proliferation assay, PANC08.13; format: cell-based; conditions: Homo sapiens, PANC-08-13, 168 h; PANC08.13 cells, 7-day CTG, geomean IC50
In short: as §5

Chain of KRAS Wild Type (P01116 other isoform, or with tags, fused parts or gaps): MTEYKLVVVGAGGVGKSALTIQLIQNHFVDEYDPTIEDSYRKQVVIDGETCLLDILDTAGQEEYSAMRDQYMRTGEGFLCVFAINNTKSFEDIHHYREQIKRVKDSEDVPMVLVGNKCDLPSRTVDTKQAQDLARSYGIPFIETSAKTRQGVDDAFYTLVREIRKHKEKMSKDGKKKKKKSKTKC

SMILES: F/C=C1\CN2CCC[C@@]2(COc2nc3c4c(nc(-c5c(C6CC6)c(Cl)cc6[nH]ncc56)c(F)c4n2)OC[C@@H]2COCCCN32)C1 [Example 16, (8aS)-5-(6-chloro-5-cyclopropyl-1H-indazol-4-yl)-4-fluoro-2-{[(2Z,7aS)-2-(fluoromethylidene)tetrahydro-1H-pyrrolizin-7a(5H)-yl]methoxy}-8a,9,12,13-tetrahydro-8H,11H-7,10-dioxa-1,3,6,13a-tetraazanaphtho[1,8-ab]heptalene]
- Kd (KRAS Wild Type): 4 nM
- Kd (KRAS G12D): 3 nM
- Kd (KRAS G12C): 4 nM
- Kd (KRAS G12V): 4 nM
- Kd (HRAS Wild Type): > 10000 nM
- Kd (NRAS Wild Type): > 10000 nM
- IC50 [1]: 22 nM
- IC50 [2]: 23 nM
- IC50 [3]: 2 nM

SMILES: C=C1CN2CCC[C@@]2(COc2nc3c4c(nc(-c5c(C6CC6)ccc6[nH]ncc56)c(F)c4n2)OC[C@@H]2COCCCN32)C1 [Example 20, (8aS)-5-(5-cyclopropyl-1H-indazol-4-yl)-4-fluoro-2-{[(7aS)-2-methylidenetetrahydro-1H-pyrrolizin-7a(5H)-yl]methoxy}-8a,9,12,13-tetrahydro-8H,11H-7,10-dioxa-1,3,6,13a-tetraazanaphtho[1,8-ab]heptalene]
- Kd (KRAS Wild Type): 91 nM
- Kd (KRAS G12D): 51 nM
- Kd (KRAS G12C): 31 nM
- Kd (KRAS G12V): 50 nM
- Kd (HRAS Wild Type): > 10000 nM
- Kd (NRAS Wild Type): > 10000 nM
- IC50 [1]: 275 nM
- IC50 [2]: 400 nM
- IC50 [3]: 17 nM

SMILES: C=C1CN2CCC[C@@]2(COc2nc3c4c(nc(-c5c(C6(C)CC6)c(Cl)cc6[nH]ncc56)c(F)c4n2)OC[C@@H]2COCCCN32)C1 [Example 39, (8aS)-5-[6-chloro-5-(1-methylcyclopropyl)-1H-indazol-4-yl]-4-fluoro-2-{[(7aS)-2-methylidenetetrahydro-1H-pyrrolizin-7a(5H)-yl]methoxy}-8a,9,12,13-tetrahydro-8H,11H-7,10-dioxa-1,3,6,13a-tetraazanaphtho[1,8-ab]heptalene]
- Kd (KRAS Wild Type): 2 nM
- Kd (KRAS G12D): 1 nM
- Kd (KRAS G12C): 2 nM
- Kd (KRAS G12V): 2 nM
- Kd (HRAS Wild Type): > 10000 nM
- Kd (NRAS Wild Type): > 10000 nM
- IC50 [1]: 10 nM
- IC50 [2]: 7 nM
- IC50 [3]: < 1 nM

SMILES: C[C@@H]1CCCc2cc3[nH]ncc3c(-c3nc4c5c(nc(OC[C@@]67CCCN6C[C@H](F)C7)nc5c3F)N3CCCOC[C@H]3CO4)c21 [Example 36, (8aS)-4-fluoro-2-{[(2R,7aS)-2-fluorotetrahydro-1H-pyrrolizin-7a(5H)-yl]methoxy}-5-[(5R)-5-methyl-5,6,7,8-tetrahydro-1H-benzo[f]indazol-4-yl]-8a,9,12,13-tetrahydro-8H,11H-7,10-dioxa-1,3,6,13a-tetraazanaphtho[1,8-ab]heptalene]
- Kd (KRAS Wild Type): 7 nM
- Kd (KRAS G12D): 3 nM
- Kd (KRAS G12C): 5 nM
- Kd (KRAS G12V): 9 nM
- Kd (HRAS Wild Type): > 10000 nM
- Kd (NRAS Wild Type): > 10000 nM
- IC50 [1]: 15 nM
- IC50 [2]: 31 nM
- IC50 [3]: 4 nM

SMILES: C=C1CN2CCC[C@@]2(COc2nc3c4c(nc(-c5c(C6CC6)c(Cl)cc6[nH]ncc56)c(F)c4n2)OC[C@@H]2COCCN32)C1 [Example 22, (8aS)-5-(6-chloro-5-cyclopropyl-1H-indazol-4-yl)-4-fluoro-2-{[(7aS)-2-methylidenetetrahydro-1H-pyrrolizin-7a(5H)-yl]methoxy}-8a,9,11,12-tetrahydro-8H-7,10-dioxa-1,3,6,12a-tetraazabenzo[4,5]cyclohepta[1,2,3-de]naphthalene]
- Kd (KRAS G12D): 250 nM
- Kd (HRAS Wild Type): > 10000 nM
- Kd (NRAS Wild Type): > 10000 nM
- IC50 [1]: 636 nM
- IC50 [2]: 839 nM
- IC50 [3]: 98 nM

SMILES: C/C=C1\CN2CCC[C@@]2(COc2nc3c4c(nc(-c5c6c(cc7[nH]ncc57)CCC[C@H]6C)c(F)c4n2)OC[C@@H]2COCCCN32)C1 [Example 53, (8aS)-2-{[(2Z,7aS)-2-ethylidenetetrahydro-1H-pyrrolizin-7a(5H)-yl]methoxy}-4-fluoro-5-[(5R)-5-methyl-5,6,7,8-tetrahydro-1H-benzo[f]indazol-4-yl]-8a,9,12,13-tetrahydro-8H,11H-7,10-dioxa-1,3,6,13a-tetraazanaphtho[1,8-ab]heptalene]
- Kd (KRAS Wild Type): 1 nM
- Kd (KRAS G12D): 1 nM
- Kd (KRAS G12C): 1 nM
- Kd (KRAS G12V): 2 nM
- Kd (HRAS Wild Type): > 10000 nM
- Kd (NRAS Wild Type): > 10000 nM
- IC50 [1]: 8 nM
- IC50 [2]: 4 nM
- IC50 [3]: 5 nM

SMILES: Fc1c(-c2c(C3CC3)c(Cl)cc3[nH]ncc23)nc2c3c(nc(OC[C@]45CCCN4CC4(CC4)C5)nc13)N1CCCOC[C@H]1CO2 [Example 19, (8aS)-2-{[(7′aR)-dihydro-1′H,3′H-spiro[cyclopropane-1,2′-pyrrolizin]-7′a(5′H)-yl]methoxy}-5-(6-chloro-5-cyclopropyl-1H-indazol-4-yl)-4-fluoro-8a,9,12,13-tetrahydro-8H,11H-7,10-dioxa-1,3,6,13a-tetraazanaphtho[1,8-ab]heptalene]
- Kd (KRAS Wild Type): 8 nM
- Kd (KRAS G12D): 6 nM
- Kd (KRAS G12C): 5 nM
- Kd (KRAS G12V): 9 nM
- Kd (HRAS Wild Type): > 10000 nM
- Kd (NRAS Wild Type): > 10000 nM
- IC50 [1]: 62 nM
- IC50 [2]: 103 nM
- IC50 [3]: 3 nM

SMILES: C/C=C1\CN2CCC[C@@]2(COc2nc3c4c(nc(-c5c(C6CC6)c(Cl)cc6[nH]ncc56)c(F)c4n2)OC[C@@H]2COCCCN32)C1 [Example 26, (8aS)-5-(6-chloro-5-cyclopropyl-1H-indazol-4-yl)-2-{[(2Z,7aS)-2-ethylidenetetrahydro-1H-pyrrolizin-7a(5H)-yl]methoxy}-4-fluoro-8a,9,12,13-tetrahydro-8H,11H-7,10-dioxa-1,3,6,13a-tetraazanaphtho[1,8-ab]heptalene]
- Kd (KRAS Wild Type): 2 nM
- Kd (KRAS G12D): 1 nM
- Kd (KRAS G12C): 1 nM
- Kd (KRAS G12V): 1 nM
- Kd (HRAS Wild Type): > 10000 nM
- Kd (NRAS Wild Type): > 10000 nM
- IC50 [1]: 17 nM
- IC50 [2]: 16 nM
- IC50 [3]: 2 nM

SMILES: C=C1CN2CCC[C@@]2(COc2nc3c4c(nc(-c5c6c(cc7[nH]ncc57)CCC[C@H]6C)c(F)c4n2)OC[C@@H]2COCCCN32)C1 [Example 29, (8aS)-4-fluoro-2-{[(7aS)-2-methylidenetetrahydro-1H-pyrrolizin-7a(5H)-yl]methoxy}-5-[(5R)-5-methyl-5,6,7,8-tetrahydro-1H-benzo[f]indazol-4-yl]-8a,9,12,13-tetrahydro-8H,11H-7,10-dioxa-1,3,6,13a-tetraazanaphtho[1,8-ab]heptalene]
- Kd (KRAS Wild Type): 1 nM
- Kd (KRAS G12D): 1 nM
- Kd (KRAS G12C): 1 nM
- Kd (KRAS G12V): 2 nM
- Kd (HRAS Wild Type): > 10000 nM
- Kd (NRAS Wild Type): > 10000 nM
- IC50 [1]: 4 nM
- IC50 [2]: 8 nM
- IC50 [3]: < 1 nM

SMILES: C[C@@H]1CCCc2cc3[nH]ncc3c(-c3nc4c5c(nc(OC[C@@]67CCCN6C/C(=C/F)C7)nc5c3F)N3CCCOC[C@H]3CO4)c21 [Example 55, (8aS)-4-fluoro-2-{[(2E,7aS)-2-(fluoromethylidene)tetrahydro-1H-pyrrolizin-7a(5H)-yl]methoxy}-5-[(5R)-5-methyl-5,6,7,8-tetrahydro-1H-benzo[f]indazol-4-yl]-8a,9,12,13-tetrahydro-8H,11H-7,10-dioxa-1,3,6,13a-tetraazanaphtho[1,8-ab]heptalene]
- Kd (KRAS Wild Type): 3 nM
- Kd (KRAS G12D): 2 nM
- Kd (KRAS G12C): 1 nM
- Kd (KRAS G12V): 2 nM
- Kd (HRAS Wild Type): > 10000 nM
- Kd (NRAS Wild Type): > 10000 nM
- IC50 [1]: 24 nM
- IC50 [2]: 6 nM
- IC50 [3]: 13 nM

SMILES: Fc1c(-c2c(C3CC3)c(Cl)cc3[nH]ncc23)nc2c3c(nc(OC[C@@]45CCCN4CC(=C4COC4)C5)nc13)N1CCCOC[C@H]1CO2 [Example 41, (8aS)-5-(6-chloro-5-cyclopropyl-1H-indazol-4-yl)-4-fluoro-2-{[(7aS)-2-(oxetan-3-ylidene)tetrahydro-1H-pyrrolizin-7a(5H)-yl]methoxy}-8a,9,12,13-tetrahydro-8H,11H-7,10-dioxa-1,3,6,13a-tetraazanaphtho[1,8-ab]heptalene]
- Kd (KRAS Wild Type): 5 nM
- Kd (KRAS G12D): 2 nM
- Kd (KRAS G12C): 4 nM
- Kd (KRAS G12V): 4 nM
- Kd (HRAS Wild Type): > 10000 nM
- Kd (NRAS Wild Type): > 10000 nM
- IC50 [1]: 25 nM
- IC50 [2]: 36 nM
- IC50 [3]: 5 nM

SMILES: COC/C=C1\CN2CCC[C@@]2(COc2nc3c4c(nc(-c5c6c(cc7[nH]ncc57)CCC[C@H]6C)c(F)c4n2)OC[C@@H]2COCCCN32)C1 [Example 37, (8aS)-4-fluoro-2-{[(2Z,7aS)-2-(2-methoxyethylidene)tetrahydro-1H-pyrrolizin-7a(5H)-yl]methoxy}-5-[(5R)-5-methyl-5,6,7,8-tetrahydro-1H-benzo[f]indazol-4-yl]-8a,9,12,13-tetrahydro-8H,11H-7,10-dioxa-1,3,6,13a-tetraazanaphtho[1,8-ab]heptalene]
- Kd (KRAS Wild Type): 3 nM
- Kd (KRAS G12D): 2 nM
- Kd (KRAS G12C): 3 nM
- Kd (KRAS G12V): 4 nM
- Kd (HRAS Wild Type): > 10000 nM
- Kd (NRAS Wild Type): > 10000 nM
- IC50 [1]: 9 nM
- IC50 [2]: 25 nM
- IC50 [3]: 4 nM
